Measurements taken from US9139567B2, “Arylpyrazole ethers as inhibitors of leukotriene A4 hydrolase” (Boehringer Ingelheim International GmbH, priority 2011, dated 2015).

How the values were obtained:
[1] = system: LTB4 production in human whole blood; experiment: LTB4 production inhibition assay in human whole blood (calcimycin-stimulated); assay type: cell-based; details: heparinized human whole blood, 15 min 37° C., calcimycin 20 μM 30 min, plasma LTB4 by HTRF
Experimental: Compounds of the invention are additionally tested in a human whole blood assay to determine their ability to inhibit the synthesis of LTB4 in a cellular system. Compounds are combined with heparinized human whole blood and incubated for 15 minutes at 37° C. Calcimycin (20 μM final, prepared in phosphate-buffered saline, pH 7.4) is then added and the mixture is incubated for another 30 minutes at 37° C. The samples are centrifuged for 5 min at low speed (1500×g) and the plasma layer is removed. Plasma LTB4 concentrations are then measured using an antibody-based homogenous time-resolved fluorescence method (CisBio, Bedford, Mass.).

human LTA4 hydrolase = biological target: T1, human LTA4 hydrolase (Homo sapiens, UniProt P09960); experiment: LTA4H enzyme assay (cleavage of Arg-AMC, fluorescence); assay type: biochemical; details: LTA4H enzyme 1 nM, Arg-AMC substrate 50 μM, room temperature 1 h
T1 sequence (P09960 1-611): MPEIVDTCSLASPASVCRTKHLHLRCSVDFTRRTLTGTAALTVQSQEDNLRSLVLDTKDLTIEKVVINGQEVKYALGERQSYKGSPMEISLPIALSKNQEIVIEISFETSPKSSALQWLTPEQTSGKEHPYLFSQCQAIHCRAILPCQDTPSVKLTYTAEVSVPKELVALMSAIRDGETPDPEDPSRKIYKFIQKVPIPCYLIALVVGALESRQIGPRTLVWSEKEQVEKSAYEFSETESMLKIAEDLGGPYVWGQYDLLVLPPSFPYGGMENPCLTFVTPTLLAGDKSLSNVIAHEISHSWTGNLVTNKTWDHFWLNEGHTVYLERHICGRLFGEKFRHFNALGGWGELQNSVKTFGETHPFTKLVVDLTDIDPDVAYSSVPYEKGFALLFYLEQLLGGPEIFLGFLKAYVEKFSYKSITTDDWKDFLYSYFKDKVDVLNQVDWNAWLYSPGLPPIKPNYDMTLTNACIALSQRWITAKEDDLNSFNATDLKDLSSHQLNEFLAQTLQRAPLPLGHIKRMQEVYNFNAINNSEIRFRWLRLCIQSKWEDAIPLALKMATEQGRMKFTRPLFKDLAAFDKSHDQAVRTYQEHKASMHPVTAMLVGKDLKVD
Experimental: Compounds are assessed for the ability to interact with human LTA4 hydrolase in an enzymatic assay that measures the ability of the enzyme to cleave the peptide bond of arginyl-aminomethylcoumarin (Arg-AMC). LTA4H Enzyme (1 nM final), Arg-AMC substrate (50 μM final), and compound are combined in a reaction buffer (50 mM Tris-HCl (pH 7.5), 100 mM KCl, 0.5% bovine serum albumin) at room temperature for 1 h. The formation of product is assessed by measuring the fluorescence of aminomethylcoumarin product (excitation wavelength 380 nm/emission wavelength 460 nm).

Row | SMILES | IC50 [1] [nM] | IC50 (human LTA4 hydrolase) [nM]
1 | c1ccc(CCOc2ccc(Oc3ccc(-c4ccn[nH]4)cc3)cc2)cc1 [Example 66, 5-{4-[4-(2-phenylethoxy)phenoxy]phenyl}-1H-pyrazole] | ≥ 5000 | 959
2 | Cc1ncsc1CCOc1ccc(Oc2ccc(-c3ccn[nH]3)cc2)cc1 [Example 67, 4-Methyl-5-(2-{4-[4-(2H-pyrazol-3-yl)-phenoxy]-phenoxy}-ethyl)-thiazole] | ≥ 5000 | 11.2
3 | c1csc(CCOc2ccc(Oc3ccc(-c4ccn[nH]4)cc3)cc2)c1 [Example 68, 5-(4-{4-[2-(2-thienyl)ethoxy]phenoxy}phenyl)-1H-pyrazole] | ≥ 5000 | 820
4 | c1cc(-c2ccc(Oc3ccc(OCc4ccsc4)cc3)cc2)[nH]n1 [Example 69, 5-{4-[4-(3-thienylmethoxy)phenoxy]phenyl}-1H-pyrazole] | ≥ 5000 | 65.3
5 | c1cc(-c2ccc(Oc3ccc(OCc4cncs4)cc3)cc2)[nH]n1 [Example 70, 5-({4-[4-(1H-pyrazol-5-yl)phenoxy]phenoxy}methyl)-1,3-thiazole] | 2390 | 4.9
6 | c1cc(-c2ccc(Oc3ccc(OCc4ccc5ncsc5c4)cc3)cc2)[nH]n1 [Example 71, 6-({4-[4-(1H-pyrazol-5-yl)phenoxy]phenoxy}methyl)-1,3-benzothiazole] | ≥ 5000 | 59.5
7 | c1cc(-c2ccc(Oc3ccc(OCCc4cnoc4)cc3)cc2)[nH]n1 [Example 72, 4-(2-{4-[4-(1H-pyrazol-5-yl)phenoxy]phenoxy}ethyl)isoxazole] | 2550 | 6.1
8 | c1cc(-c2ccc(Oc3ccc(OCc4nccs4)cc3)cc2)[nH]n1 [Example 73, 2-({4-[4-(1H-pyrazol-5-yl)phenoxy]phenoxy}methyl)-1,3-thiazole] | 4100 | 10.4
9 | Cc1ncoc1COc1ccc(Oc2ccc(-c3ccn[nH]3)cc2)cc1 [Example 74, 4-methyl-5-({4-[4-(1H-pyrazol-5-yl)phenoxy]phenoxy}methyl)-1,3-oxazole] | 2550 | 17.9
10 | c1cnc(COc2ccc(Oc3ccc(-c4ccn[nH]4)cc3)cc2)nc1 [Example 75, 2-({4-[4-(1H-pyrazol-5-yl)phenoxy]phenoxy}methyl)pyrimidine] | 2840 | 6.6
11 | c1cc(-c2ccc(Oc3ccc(OCc4ccc5nccn5c4)cc3)cc2)[nH]n1 [Example 76, 6-({4-[4-(1H-pyrazol-5-yl)phenoxy]phenoxy}methyl)imidazo[1,2-a]pyridine] | 1420 | 0.9
12 | Cc1nnsc1COc1ccc(Oc2ccc(-c3ccn[nH]3)cc2)cc1 [Example 77, 4-Methyl-5-{4-[4-(2H-pyrazol-3-yl)-phenoxy]-phenoxymethyl}-[1,2,3]thiadiazole] | 492 | 1
13 | c1cc(-c2ccc(Oc3ccc(OCc4cnco4)cc3)cc2)[nH]n1 [Example 78, 5-({4-[4-(1H-pyrazol-5-yl)phenoxy]phenoxy}methyl)-1,3-oxazole] | 1650 | 2.8
14 | CC(COc1ccc(Oc2ccc(-c3ccn[nH]3)cc2)cc1)Cn1cccn1 (stereo not drawn) [Example 79, 1-(2-methyl-3-{4-[4-(1H-pyrazol-5-yl)phenoxy]phenoxy}propyl)-1H-pyrazole] | 2110 | 2.7
15 | c1cnn(-c2ccc(COc3ccc(Oc4ccc(-c5ccn[nH]5)cc4)cc3)cn2)c1 [Example 80, 2-(1H-pyrazol-1-yl)-5-({4-[4-(1H-pyrazol-5-yl)phenoxy]phenoxy}methyl)pyridine] | 1650 | 1.9
16 | c1cc(-c2ccc(Oc3ccc(OCc4ccc5[nH]cnc5c4)cc3)cc2)[nH]n1 [Example 81, 5-({4-[4-(1H-pyrazol-5-yl)phenoxy]phenoxy}methyl)-1H-benzimidazole] | ≥ 5000 | 14.2
17 | c1cc(-c2ccc(Oc3ccc(OCCC4CCOCC4)cc3)cc2)[nH]n1 [Example 82, 5-(4-{4-[2-(tetrahydro-2H-pyran-4-yl)ethoxy]phenoxy}phenyl)-1H-pyrazole] | 2670 | 7.9
18 | c1cc(-c2ccc(Oc3ccc(OCC4CCCOC4)cc3)cc2)[nH]n1 (stereo not drawn) [Example 83, 5-{4-[4-(tetrahydro-2H-pyran-3-ylmethoxy)phenoxy]phenyl}-1H-pyrazole] | 1740 | 2.9
19 | c1cc(-c2ccc(Oc3ccc(OCC4CCOCC4)cc3)cc2)[nH]n1 [Example 84, 5-{4-[4-(tetrahydro-2H-pyran-4-ylmethoxy)phenoxy]phenyl}-1H-pyrazole] | 1460 | 4.6
20 | O=C1CC[C@H](COc2ccc(Oc3ccc(-c4ccn[nH]4)cc3)cc2)O1 [Example 85, (5R)-5-({4-[4-(1H-pyrazol-5-yl)phenoxy]phenoxy}methyl)dihydrofuran-2(3H)-one] | ≥ 5000 | 0.8
21 | O=C1CC[C@@H](COc2ccc(Oc3ccc(-c4ccn[nH]4)cc3)cc2)O1 [Example 86, (5S)-5-({4-[4-(1H-pyrazol-5-yl)phenoxy]phenoxy}methyl)dihydrofuran-2(3H)-one] | 4500 | 0.8
22 | O=C1OCC[C@@H]1Oc1ccc(Oc2ccc(-c3ccn[nH]3)cc2)cc1 [Example 87, (3S)-3-{4-[4-(1H-pyrazol-5-yl)phenoxy]phenoxy}dihydrofuran-2(3H)-one] | ≥ 5000 | 23.1
23 | O=C1OCC[C@H]1Oc1ccc(Oc2ccc(-c3ccn[nH]3)cc2)cc1 [Example 88, (3R)-3-{4-[4-(1H-pyrazol-5-yl)phenoxy]phenoxy}dihydrofuran-2(3H)-one] | ≥ 5000 | 16.4
24 | c1cc(-c2ccc(Oc3ccc(OC4CCOCC4)cc3)cc2)[nH]n1 [Example 89, 5-{4-[4-(tetrahydro-2H-pyran-4-yloxy)phenoxy]phenyl}-1H-pyrazole] | 1770 | 4.8
25 | c1cc(-c2ccc(Oc3ccc(O[C@H]4CCOC4)cc3)cc2)[nH]n1 [Example 90, 5-(4-{4-[(3S)-tetrahydrofuran-3-yloxy]phenoxy}phenyl)-1H-pyrazole] | 777 | 2.4
26 | c1cc(-c2ccc(Oc3ccc(OCC4CCCCO4)cc3)cc2)[nH]n1 (stereo not drawn) [Example 91, 5-{4-[4-(tetrahydro-2H-pyran-2-ylmethoxy)phenoxy]phenyl}-1H-pyrazole] | ≥ 5000 | 10.7
27 | c1cc(-c2ccc(Oc3ccc(OCC4CCOC4)cc3)cc2)[nH]n1 (stereo not drawn) [Example 92, 5-{4-[4-(tetrahydrofuran-3-ylmethoxy)phenoxy]phenyl}-1H-pyrazole] | 1200 | 3.3
28 | c1cc(-c2ccc(Oc3ccc(OCCC4CCCCO4)cc3)cc2)[nH]n1 (stereo not drawn) [Example 93, 5-(4-{4-[2-(tetrahydro-2H-pyran-2-yl)ethoxy]phenoxy]phenyl)-1H-pyrazole] | 4600 | 26.9
29 | c1cc(-c2ccc(Oc3ccc(OC4CCCOC4)cc3)cc2)[nH]n1 (stereo not drawn) [Example 94, 5-{4-[4-(tetrahydro-2H-pyran-3-yloxy)phenoxy]phenyl}-1H-pyrazole] | 2000 | 14.1
30 | O=C1CC[C@@H](Oc2ccc(Oc3ccc(-c4ccn[nH]4)nc3)cc2)CN1 [Example 95, (5R)-5-(4-{[6-(1H-pyrazol-5-yl)pyridin-3-yl]oxy}phenoxy)piperidin-2-one] | 367 | 1.6
